# The source made the active and inactive calls.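 How the source made its calls: active means a tumor-causing dose value with its tumor site reported for any sex and species group of a rodent or other animal cancer study; inconclusive means only studies judged inadequate by the national testing program; inactive means tested in at least one study, none positive.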
# Test: DSSTox (CPDBAS) Carcinogenic Potency Database Summary SingleCellCall Results
# Details: animal chronic carcinogenicity bioassays, CPDB summary call
# From the text: The Carcinogenic Potency Database (CPDB) is a unique and widely used international resource of the results of over 6500 chronic, long-term animal cancer tests on over 1500 chemical substances. The CPDB provides easy access to the bioassay literature, with qualitative and quantitative analyses of both positive and negative experiments that have been published over the past 50 years in the general literature and by the National Cancer Institute/National Toxicology Program. The CPDB standardizes the diverse literature of cancer bioassays that vary widely in protocol, histopathological examination and nomenclature, and in the published author's choices of what information to provide in their papers. Results are reported in the CPDB for tests in rats, mice, hamsters, dogs, and nonhuman primates, and are based on the most positive result among all experiments for each sex-species. The DSSTox CPDBAS (all species) file incorporates data from the CPDB Summary Tables for the full list of over 1500 chemical substances tested in at least one species. A summary SingleCellCall, based on experimental bioassay results of one or more species, is provided for the entire DSSTox CPDBAS file (see Source URL).
# An assignment of categorical carcinogenic activity based on minimal evidence for or against activity. […] Associated TD50 values and tumor site details for the relevant species/sex experiment supporting this overall CPDBAS SingleSiteCall are provided in the full CPDBAS DSSTox file (see Comment) and the corresponding CPDBAS Species Bioassay in PubChem.
row,Structure (SMILES),outcome
1,COc1ccc(C(=O)Nc2c(Cl)cncc2Cl)cc1OC1CCCC1,active
2,c1ccncc1,active
3,[Cl-].[Cl-].[Sn+2],inactive
4,O=C1CCCCC1,inactive
5,O=NN1CC=CCC1,active
6,CCOC(=O)N(C)N=O,active
7,COc1cc(OC)c2c3c(c(=O)oc2c1)CCC3,inactive
8,CCOP(=S)(OCC)Oc1cc(C)nc(C(C)C)n1,inactive; active
9,CCCNN,active
10,O=[N+]([O-])c1cc([N+](=O)[O-])c(Cl)c(Cl)c1Cl,inactive
11,Oc1ccccc1-c1ccccc1,active
12,CCN(Cc1cccc(S(=O)(=O)[O-])c1)c1ccc(C(=C2C=CC(=[N+](C)C)C=C2)c2ccc(N(CC)Cc3cccc(S(=O)(=O)O)c3)cc2)cc1,active
13,CC(I)C1OCC(CO)O1 (stereo not drawn),active
14,Brc1cc(Br)c2cccnc2c1,inactive; active
15,C#C[C@]1(O)CC[C@H]2[C@@H]3CCc4cc(OC)ccc4[C@H]3CC[C@@]21C,inactive
16,C1N2CN3CN1CN(C2)C3,inactive; active
17,CC(=O)NNC(=O)c1ccncc1,active
18,[O]=[Cr](=[O])([OH])[O][Cr](=[O])(=[O])[OH],active
19,Nc1ccc(N)c2c1C(=O)c1c(N)ccc(N)c1C2=O,active
20,CCCCCCC(=O)/C=C/CCCCCCCCC(=O)OC,inactive; active
21,Cc1ccc2c(-c3cccc(O)c3)nc(=O)n(C(C)C)c2c1,inactive
22,Cc1c(N(C)CS(=O)(=O)O)c(=O)n(-c2ccccc2)n1C,active

row,Structure (SMILES),outcome
1,NC(N)=S,active; inactive
2,ClCOCCOCCl,active
3,O=NN1CCCC1c1ccc[n+]([O-])c1 (stereo not drawn),active; inactive
4,CCN(N=O)C(=O)NCC(C)=O,active
5,CCc1ccccc1,active
6,ClCC1CO1 (stereo not drawn),active
7,CCC1NC(=O)C2C(Cl)C(Cl)CN2C(=O)C(CO)NC(=O)CC(c2ccccc2)NC(=O)C(CO)NC1=O (stereo not drawn),active; inactive
8,COc1cc(-c2ccc(N=Nc3c(S(=O)(=O)O)cc4cc(S(=O)(=O)O)cc(N)c4c3O)c(OC)c2)ccc1N=Nc1c(S(=O)(=O)O)cc2cc(S(=O)(=O)O)cc(N)c2c1O,active
9,O=C([O-])C(=O)O.O=C([O-])C(=O)O.[K+].[K+].[O]=[Ti],inactive; active
10,CN(C)N=Nc1ccccc1,active
11,CN(C)C(=O)COC(=O)Cc1ccc(OC(=O)c2ccc(N=C(N)N)cc2)cc1,inactive
12,FC(F)Cl,inactive
13,C[C@H]([C@H](O)CCC(C)(C)O)[C@H]1CC[C@@]2(O)C3=CC(=O)[C@@H]4C[C@@H](O)[C@@H](O)C[C@]4(C)[C@H]3CC[C@]12C,active; inactive
14,CC1=C[C@H]2[C@@]3(O)[C@H](C)[C@@H](O)[C@]4(O)[C@H]([C@@H]3C=C(CO)C[C@]2(O)C1=O)C4(C)C,active
15,CCCCC(CC)COC(=O)COc1ccc(Cl)cc1Cl (stereo not drawn),inactive
16,Nc1ccc(O)c([N+](=O)[O-])c1,active
17,CCOc1nc2cccc(C(=O)OC(C)OC(=O)OC3CCCCC3)c2n1Cc1ccc(-c2ccccc2-c2nn[nH]n2)cc1 (stereo not drawn),inactive
18,C1CCNCC1,inactive; active
19,O=NN1CCCCCCCCCCCC1,active
20,Cc1cc(N=Nc2c(O)ccc3ccccc23)c(S(=O)(=O)O)cc1Cl,active; inactive
21,OCC(CO)N[C@H]1C[C@](O)(CO)[C@@H](O)[C@H](O)[C@H]1O,inactive
